Laboratory results from patent publication US9708336B2, “Metallo-beta-lactamase inhibitors” (priority 2014, dated 2017).
pIC50: −log10 of the molar value. Like-named read-outs stand apart in the source and are kept apart here.

Tests used:
IMP-1 = IMP-1 (Serratia marcescens, UniProt P52699); assay: biochemical; format: biochemical; conditions: read-out: IMP-1 IC50
VIM-1 = VIM-1 (Pseudomonas aeruginosa (strain ATCC 15692 / DSM 22644 / CIP 104116 / JCM 14847 / LMG 12228 / 1C / PRS 101 / PAO1), UniProt A0A0F7KYQ8); assay: Enzyme activity: determination of IC50, fluorescence assay with CCF2-FA substrate (VIM-1); format: biochemical
[1] = test system: Escherichia coli expressing NDM-1 (CLB30016); assay: Antibiotic potentiation activity: synergistic concentration (MITC95) with imipenem, OD600 growth; format: cell-based; conditions: for Escherichia coli expressing NDM-1 (CLB 30016) MITC95: concentration giving 95% inhibition of bacterial growth
Method in brief: (§1)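 Compound activity is tested with and without imipenem, which is present at 4 μg/ml (or 1 μg/ml) in the well. Bacteria in 1.1× CAMHB are incubated 22–24 h at 35 °C; absorbance gives the growth endpoint.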

[2] = test system: Klebsiella pneumoniae expressing VIM-1 (IHMA599644); assay: as above; format: cell-based; conditions: for Klebsiella pneumoniae expressing VIM-1 (IHMA 599644) MITC95: concentration giving 95% inhibition of bacterial growth
Method in brief: as §1

[3] = test system: Serratia marcescens expressing IMP-1 (CL5741); assay: as above; format: cell-based; conditions: for Serratia marcescens expressing IMP-1 (CL5741) MITC95: concentration giving 95% inhibition of bacterial growth
Method in brief: as §1

NDM-1 = NDM-1 (Klebsiella pneumoniae, UniProt C7C422); assay: biochemical; format: biochemical; conditions: read-out: NDM-1 IC50
Chain of NDM-1 (C7C422 whole entry, looked up, species assumed): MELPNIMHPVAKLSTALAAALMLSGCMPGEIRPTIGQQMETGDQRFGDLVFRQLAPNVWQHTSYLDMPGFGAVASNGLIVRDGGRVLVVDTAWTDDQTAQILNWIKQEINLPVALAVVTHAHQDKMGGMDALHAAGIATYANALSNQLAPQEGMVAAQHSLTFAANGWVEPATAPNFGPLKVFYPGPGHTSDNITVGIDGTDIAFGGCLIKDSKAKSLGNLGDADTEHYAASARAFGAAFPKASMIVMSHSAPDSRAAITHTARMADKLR

[4] = fluorescence assay with CCF2-FA substrate
[5] = fluorescence assay with CCF2-FA substrate, read-out: VIM-1 IC50
[6] = CLB30016 (NDM-1), 95% inhibition of bacterial growth
[7] = IHMA599644 (VIM-1), 95% inhibition of bacterial growth
[8] = CL5741 (IMP-1), 95% inhibition of bacterial growth
[9] = IMP-1 enzyme, CCF2-FA fluorescence assay
[10] = Escherichia coli expressing NDM-1 (CLB30016), 95% growth inhibition
[11] = Klebsiella pneumoniae expressing VIM-1 (IHMA599644), 95% growth inhibition
[12] = Serratia marcescens expressing IMP-1 (CL5741), 95% growth inhibition
[13] = NDM-1 enzyme, CCF2-FA fluorescence assay
[14] = IMP-1 enzyme, CCF2-FA substrate
[15] = (CLB30016, NDM-1), 95% growth inhibition
[16] = Klebsiella pneumoniae IHMA599644 (VIM-1), 95% growth inhibition
[17] = Serratia marcescens CL5741 (IMP-1), 95% growth inhibition
[18] = NDM-1 enzyme, CCF2-FA substrate
[19] = VIM-1 enzyme, CCF2-FA substrate, read-out: VIM-1 IC50
[20] = VIM-1 enzyme, CCF2-FA fluorescence assay, read-out: VIM-1 IC50

Chain of IMP-1 (P52699 whole entry, looked up): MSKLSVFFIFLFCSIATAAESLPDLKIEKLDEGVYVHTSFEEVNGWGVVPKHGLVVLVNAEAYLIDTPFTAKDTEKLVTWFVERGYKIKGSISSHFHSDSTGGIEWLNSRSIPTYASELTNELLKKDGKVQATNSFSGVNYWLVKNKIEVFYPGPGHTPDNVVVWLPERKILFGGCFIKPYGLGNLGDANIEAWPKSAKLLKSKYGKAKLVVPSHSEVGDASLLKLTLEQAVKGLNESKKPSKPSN

| Structure (SMILES) | pIC50 (IMP-1; [4]) | pIC50 (VIM-1; [5]) | pIC50 (NDM-1; [4]) | pIC50 (IMP-1; [14]) | Escherichia coli MITC95 [1, 15] [µM] | Klebsiella pneumoniae MITC95 [2, 16] [µM] | Serratia marcescens MITC95 [3, 17] [µM] | pIC50 (NDM-1; [18]) | pIC50 (VIM-1; [19]) | other results |
| --- | --- | --- | --- | --- | --- | --- | --- | --- | --- | --- |
| NC1CCC(N2CCC(c3ccc(-c4ccc(C(F)(F)F)c(S(N)(=O)=O)c4-c4nnn[nH]4)cc3)CC2)CC1 (stereo not drawn) [Example 794, 4′-[1-(4-aminocyclohexyl)piperidin-4-yl]-2-(1H-tetrazol-5-yl)-4-(trifluoromethyl)biphenyl-3-sulfonamide] | 8.75 | 7.96 | 8.19 |  |  |  |  |  |  | Escherichia coli MITC95 [1, 6]: 1.563 µM; Klebsiella pneumoniae MITC95 [2, 7]: 50 µM; Serratia marcescens MITC95 [3, 8]: 3.125 µM |
| N#Cc1ccccc1Cc1cccc(S(N)(=O)=O)c1-c1nnn[nH]1 [Example 166, 3-(2-cyanobenzyl)-2-(1H-tetrazol-5-yl)benzenesulfonamide] | 7.13 | 7.73 | 8.16 |  |  |  |  |  |  | Escherichia coli expressing NDM-1 (CLB 30016) MITC95 [1]: 2.344 µM; Klebsiella pneumoniae expressing VIM-1 (IHMA 599644) MITC95 [2]: 100 µM; Serratia marcescens expressing IMP-1 (CL5741) MITC95 [3]: 3.906 µM |
| Nc1cc(-c2cccc(S(N)(=O)=O)c2-c2nnn[nH]2)cc(N)n1 [Example 133, 3-(2,6-diaminopyridin-4-yl)-2-(1H-tetrazol-5-yl)benzenesulfonamide] | 5.31 | 6.97 | 7.67 |  |  |  |  |  |  | Escherichia coli expressing NDM-1 (CLB 30016) MITC95 [1]: 0.3906 µM; Klebsiella pneumoniae expressing VIM-1 (IHMA 599644) MITC95 [2]: 6.25 µM; Serratia marcescens expressing IMP-1 (CL5741) MITC95 [3]: 37.5 µM |
| CC(NCc1ccc(-c2cccc(S(N)(=O)=O)c2-c2nnn[nH]2)cc1)c1nn[nH]n1 (stereo not drawn) [Example 353, 2-(1H-tetrazol-5-yl)-4′-({[1-(2H-tetrazol-5-yl)ethyl]amino}methyl)biphenyl-3-sulfonamide] |  |  |  |  |  |  |  |  |  | pIC50 (IMP-1; [9]): 7.55; pIC50 (VIM-1; VIM-1 IC50, VIM-1 enzyme, CCF2-FA fluorescence assay): 6.16; Escherichia coli MITC95 [1, 10]: 2.344 µM; Klebsiella pneumoniae MITC95 [2, 11]: 100 µM; Serratia marcescens MITC95 [3, 12]: 1.172 µM; pIC50 (NDM-1; [13]): 8.39 |
| NC1CCC(N[C@H]2CC[C@H](c3ccc(C(F)(F)F)c(S(N)(=O)=O)c3-c3nnn[nH]3)CC2)C1 (stereo partly drawn) [Example 703, 3-{4-[(3-aminocyclopentyl)amino]cyclohexyl}-2-(1H-tetrazol-5-yl)-6-(trifluoromethyl)benzene sulfonamide] |  |  |  | 7.42 | 0.3906 | 12.5 | 3.125 | 8.21 |  | pIC50 (VIM-1; VIM-1 IC50, VIM-1 enzyme, CCF2-FA substrate): 8.08 |
| NS(=O)(=O)c1c(C(F)(F)F)ccc(-c2cnc3ccoc3c2)c1-c1nnn[nH]1 [Example 711, 3-furo[3,2-b]pyridin-6-yl-2-(1H-tetrazol-5-yl)-6-(trifluoromethyl)benzenesulfon-amide] |  |  |  | 8.45 | 6.25 | 6.25 | 12.5 | 8.99 | 9.65 |  |
| Nc1nc2ccc(-c3cccc(S(N)(=O)=O)c3-c3nnn[nH]3)cc2s1 [Example 417, 3-(2-amino-1,3-benzothiazol-6-yl)-2-(1H-tetrazol-5-yl)benzenesulfonamide] |  |  |  |  |  |  |  |  |  | pIC50 (IMP-1; [9]): 7.30; pIC50 (VIM-1; [20]): 8.07; Escherichia coli MITC95 [1, 10]: 1.953 µM; Klebsiella pneumoniae MITC95 [2, 11]: 9.375 µM; Serratia marcescens MITC95 [3, 12]: 2.344 µM; pIC50 (NDM-1; [13]): 9.12 |
| NS(=O)(=O)c1c(C(F)(F)F)ccc(N2CCC3(CCNCC3)C2)c1-c1nnn[nH]1 [Example 771, 3-(2,8-diazaspiro[4.5]dec-2-yl)-2-(1H-tetrazol-5-yl)-6-(trifluoromethyl) benzenesulfonamide] | 6.64 | 7.64 | 7.51 |  |  |  |  |  |  | Escherichia coli MITC95 [1, 6]: 25 µM; Klebsiella pneumoniae MITC95 [2, 7]: 50 µM; Serratia marcescens MITC95 [3, 8]: 50 µM |
| NS(=O)(=O)c1c(C(F)(F)F)ccc(-c2ccc(-c3c[nH]c(O)n3)cc2)c1-c1nnn[nH]1.O=C(O)C(F)(F)F [Example 559, 3-[4-(2-hydroxy-1H-imidazol-4-yl)phenyl]-2-(1H-tetrazol-5-yl)-6-(trifluoromethyl)benzenesulfonamide] |  |  |  | 9.27 | 12.5 | 12.5 | 6.25 | 9.36 | 9.67 |  |
| CN(C)CCCNCc1ccc(-c2cccc(S(N)(=O)=O)c2-c2nnn[nH]2)cc1 [Example 348, 4′-({[3-(dimethylamino)propyl]amino}methyl)-2-(1H-tetrazol-5-yl)biphenyl-3-sulfonamide] |  |  |  |  |  |  |  |  |  | pIC50 (IMP-1; [9]): 5.88; pIC50 (VIM-1; [20]): 6.07; Escherichia coli MITC95 [1, 10]: 1.172 µM; Klebsiella pneumoniae MITC95 [2, 11]: 75 µM; Serratia marcescens MITC95 [3, 12]: 9.375 µM; pIC50 (NDM-1; [13]): 7.59 |
| CCn1c(N)nc2cc(-c3ccc(C(F)(F)F)c(S(N)(=O)=O)c3-c3nnn[nH]3)ccc21 [Example 752, 3-(2-amino-1-ethyl-1H-benzimidazol-5-yl)-2-(1H-tetrazol-5-yl)-6-(trifluoromethyl)benzenesulfon-amide] | 8.20 | 9.17 | 8.63 |  |  |  |  |  |  | Escherichia coli MITC95 [1, 6]: 1.563 µM; Klebsiella pneumoniae MITC95 [2, 7]: 25 µM; Serratia marcescens MITC95 [3, 8]: 12.5 µM |
| N=C(N)NCc1ccc(-c2ccc(CC3CCNCC3)c(S(N)(=O)=O)c2-c2nn[nH]n2)cc1 [Example 594, 4′-(guanidinomethyl)-4-(piperidin-4-ylmethyl)-2-(2H-tetrazol-5-yl)biphenyl-3-sulfonamide] |  |  |  | 7.29 | 0.7813 | 1.563 | 1.563 | 7.87 | 8.27 |  |
| CS(=O)(=O)C1CN(c2ccc(-c3cccc(S(N)(=O)=O)c3-c3nnn[nH]3)cn2)C1 [Example 631, 3-[6-(3-methylsulfonylazetidin-1-yl)-3-pyridyl]-2-(1H-tetrazol-5-yl)benzenesulfonamide] |  |  |  | 7.40 | 1.953 | 25 | 6.25 | 8.08 | 6.96 |  |
| NC1CCCC12CCN(c1ccc(C(F)(F)F)c(S(N)(=O)=O)c1-c1nnn[nH]1)CC2 (stereo not drawn) [Example 761, 3-(1-amino-8-azaspiro[4.5]dec-8-yl)-2-(1H-tetrazol-5-yl)-6-(trifluoromethyl) benzenesulfonamide] | 6.98 | 7.32 | 7.34 |  |  |  |  |  |  | Escherichia coli MITC95 [1, 6]: 100 µM; Klebsiella pneumoniae MITC95 [2, 7]: >200 µM; Serratia marcescens MITC95 [3, 8]: 100 µM |
| Nc1ncc(-c2ccc(Br)c(S(N)(=O)=O)c2-c2nn[nH]n2)s1 [Example 424, 3-(2-aminothiazol-5-yl)-6-bromo-2-(2H-tetrazol-5-yl)benzenesulfonamide] |  |  |  |  |  |  |  |  |  | pIC50 (IMP-1; [9]): 7.09; pIC50 (VIM-1; [20]): 7.49; Escherichia coli MITC95 [1, 10]: 0.7813 µM; Klebsiella pneumoniae MITC95 [2, 11]: 15.63 µM; Serratia marcescens MITC95 [3, 12]: 1.563 µM; pIC50 (NDM-1; [13]): 7.72 |
| NS(=O)(=O)c1c(C(F)(F)F)ccc(C2CCCCC2)c1-c1nnn[nH]1 [Example 491, 3-cyclohexyl-2-(1H-tetrazol-5-yl)-6-(trifluoromethyl)benzenesulfonamide] |  |  |  | 8.96 | 0.6406 | 3.792 | 0.0625 | 9.36 | 9.30 |  |
| NCC1CCC(N[C@H]2CC[C@H](c3ccc(C(F)(F)F)c(S(N)(=O)=O)c3-c3nnn[nH]3)CC2)CC1 (stereo partly drawn) [Example 704, 3-(4-{[4-(aminomethyl)cyclohexyl]amino}cyclohexyl)-2-(1H-tetrazol-5-yl)-6-(trifluoromethyl)benzene sulfonamide] |  |  |  | 7.29 | 1.563 | 6.25 | 6.25 | 7.83 | 8.14 |  |
| N#Cc1cccc(Cc2cccc(S(N)(=O)=O)c2-c2nnn[nH]2)c1 [Example 152, 3-(3-cyanobenzyl)-2-(1H-tetrazol-5-yl)benzenesulfonamide] | 6.60 | 7.04 | 7.85 |  |  |  |  |  |  | Escherichia coli expressing NDM-1 (CLB 30016) MITC95 [1]: 4.688 µM; Klebsiella pneumoniae expressing VIM-1 (IHMA 599644) MITC95 [2]: 200 µM; Serratia marcescens expressing IMP-1 (CL5741) MITC95 [3]: 12.5 µM |
| NS(=O)(=O)c1nccc(N2CCC(N3CCOCC3)CC2)c1-c1nnn[nH]1 [Example 239, 4-(4-morpholin-4-ylpiperidin-1-yl)-3-(1H-tetrazol-5-yl)pyridine-2-sulfonamide] | 5.43 | 6.02 | 6.42 |  |  |  |  |  |  | Escherichia coli expressing NDM-1 (CLB 30016) MITC95 [1]: 1.563 µM; Klebsiella pneumoniae expressing VIM-1 (IHMA 599644) MITC95 [2]: 50 µM; Serratia marcescens expressing IMP-1 (CL5741) MITC95 [3]: 50 µM |
